From publication PMC4774911, “Biochemical Screening of Five Protein Kinases from Plasmodium falciparum against 14,000 Cell-Active Compounds” (PLoS ONE, 2016)
Several values for one entry are separate records, joined by “and”; a condition that tells them apart may be missing. Identical values can stand only once.

Assays:
Assay in all cases: biochemical
ERN1 = ERN1 (Homo sapiens, UniProt O75460)
IRAK1 = IRAK1 (Homo sapiens, UniProt P51617)
MINK1 = MINK1 (Homo sapiens, UniProt Q8N4C8)
NEK6 = NEK6 (Homo sapiens, UniProt Q9HC98)
NEK6, sequence (Q9HC98 whole entry): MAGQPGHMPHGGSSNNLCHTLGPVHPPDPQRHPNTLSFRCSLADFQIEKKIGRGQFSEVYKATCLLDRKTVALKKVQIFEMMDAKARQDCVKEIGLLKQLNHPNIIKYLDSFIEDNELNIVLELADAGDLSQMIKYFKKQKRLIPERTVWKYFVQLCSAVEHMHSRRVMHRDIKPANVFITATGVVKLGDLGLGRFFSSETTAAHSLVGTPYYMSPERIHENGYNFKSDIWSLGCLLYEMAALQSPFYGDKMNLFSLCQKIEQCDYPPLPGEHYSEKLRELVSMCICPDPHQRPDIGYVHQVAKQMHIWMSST

PRKAA1 = PRKAA1 (Homo sapiens, UniProt Q13131)
PRKAA1, sequence (Q13131 whole entry): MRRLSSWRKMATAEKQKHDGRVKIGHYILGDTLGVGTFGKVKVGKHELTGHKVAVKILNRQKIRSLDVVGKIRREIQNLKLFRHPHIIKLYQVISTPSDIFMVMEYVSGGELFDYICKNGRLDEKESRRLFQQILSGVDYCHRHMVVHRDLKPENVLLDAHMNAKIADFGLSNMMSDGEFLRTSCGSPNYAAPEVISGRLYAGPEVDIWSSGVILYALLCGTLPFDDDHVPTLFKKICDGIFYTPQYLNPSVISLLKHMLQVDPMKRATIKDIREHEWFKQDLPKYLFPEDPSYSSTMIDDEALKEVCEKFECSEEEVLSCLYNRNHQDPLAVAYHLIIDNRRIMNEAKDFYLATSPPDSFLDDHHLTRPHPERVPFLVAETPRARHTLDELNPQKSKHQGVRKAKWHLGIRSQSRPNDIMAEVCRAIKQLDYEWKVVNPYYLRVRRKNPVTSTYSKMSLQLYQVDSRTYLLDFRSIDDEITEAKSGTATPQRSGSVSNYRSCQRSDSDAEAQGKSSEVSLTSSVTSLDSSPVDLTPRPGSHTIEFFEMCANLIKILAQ

TAOK2 = biological target: T1, TAOK2 (Homo sapiens, UniProt Q9UL54)
T1 sequence (Q9UL54 1-1235): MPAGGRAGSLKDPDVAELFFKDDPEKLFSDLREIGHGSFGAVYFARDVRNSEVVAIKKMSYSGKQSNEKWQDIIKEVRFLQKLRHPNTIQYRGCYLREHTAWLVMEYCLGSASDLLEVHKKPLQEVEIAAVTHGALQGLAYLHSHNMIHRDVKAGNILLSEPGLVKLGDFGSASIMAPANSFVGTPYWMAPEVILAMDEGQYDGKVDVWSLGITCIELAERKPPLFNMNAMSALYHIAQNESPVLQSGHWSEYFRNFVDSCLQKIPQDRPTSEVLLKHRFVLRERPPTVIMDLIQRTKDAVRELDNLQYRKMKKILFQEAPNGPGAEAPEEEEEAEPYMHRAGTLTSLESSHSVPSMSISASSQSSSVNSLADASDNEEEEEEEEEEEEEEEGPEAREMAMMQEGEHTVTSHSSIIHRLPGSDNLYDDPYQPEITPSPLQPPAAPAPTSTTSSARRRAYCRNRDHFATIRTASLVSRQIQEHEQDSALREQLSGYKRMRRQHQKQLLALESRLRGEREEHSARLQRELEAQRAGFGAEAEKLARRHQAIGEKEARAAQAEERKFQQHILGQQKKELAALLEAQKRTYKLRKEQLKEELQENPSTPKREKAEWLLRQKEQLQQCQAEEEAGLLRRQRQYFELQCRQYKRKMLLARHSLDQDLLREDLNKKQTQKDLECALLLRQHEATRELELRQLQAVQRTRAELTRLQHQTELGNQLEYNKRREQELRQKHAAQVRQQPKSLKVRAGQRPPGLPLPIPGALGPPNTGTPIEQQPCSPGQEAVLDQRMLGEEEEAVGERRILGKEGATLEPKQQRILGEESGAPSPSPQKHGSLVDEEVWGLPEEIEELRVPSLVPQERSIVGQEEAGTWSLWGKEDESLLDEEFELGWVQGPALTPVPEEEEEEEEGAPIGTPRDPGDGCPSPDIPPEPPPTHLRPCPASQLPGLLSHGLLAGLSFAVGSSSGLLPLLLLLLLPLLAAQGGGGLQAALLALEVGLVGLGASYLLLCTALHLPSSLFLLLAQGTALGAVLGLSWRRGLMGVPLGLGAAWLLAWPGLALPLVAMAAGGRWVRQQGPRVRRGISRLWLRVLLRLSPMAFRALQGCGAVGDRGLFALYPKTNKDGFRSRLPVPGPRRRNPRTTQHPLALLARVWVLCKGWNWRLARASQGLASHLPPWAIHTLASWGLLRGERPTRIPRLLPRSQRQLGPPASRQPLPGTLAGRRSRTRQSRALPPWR

TNK2 = TNK2 (Homo sapiens, UniProt Q07912)
TNK2, sequence (Q07912 whole entry): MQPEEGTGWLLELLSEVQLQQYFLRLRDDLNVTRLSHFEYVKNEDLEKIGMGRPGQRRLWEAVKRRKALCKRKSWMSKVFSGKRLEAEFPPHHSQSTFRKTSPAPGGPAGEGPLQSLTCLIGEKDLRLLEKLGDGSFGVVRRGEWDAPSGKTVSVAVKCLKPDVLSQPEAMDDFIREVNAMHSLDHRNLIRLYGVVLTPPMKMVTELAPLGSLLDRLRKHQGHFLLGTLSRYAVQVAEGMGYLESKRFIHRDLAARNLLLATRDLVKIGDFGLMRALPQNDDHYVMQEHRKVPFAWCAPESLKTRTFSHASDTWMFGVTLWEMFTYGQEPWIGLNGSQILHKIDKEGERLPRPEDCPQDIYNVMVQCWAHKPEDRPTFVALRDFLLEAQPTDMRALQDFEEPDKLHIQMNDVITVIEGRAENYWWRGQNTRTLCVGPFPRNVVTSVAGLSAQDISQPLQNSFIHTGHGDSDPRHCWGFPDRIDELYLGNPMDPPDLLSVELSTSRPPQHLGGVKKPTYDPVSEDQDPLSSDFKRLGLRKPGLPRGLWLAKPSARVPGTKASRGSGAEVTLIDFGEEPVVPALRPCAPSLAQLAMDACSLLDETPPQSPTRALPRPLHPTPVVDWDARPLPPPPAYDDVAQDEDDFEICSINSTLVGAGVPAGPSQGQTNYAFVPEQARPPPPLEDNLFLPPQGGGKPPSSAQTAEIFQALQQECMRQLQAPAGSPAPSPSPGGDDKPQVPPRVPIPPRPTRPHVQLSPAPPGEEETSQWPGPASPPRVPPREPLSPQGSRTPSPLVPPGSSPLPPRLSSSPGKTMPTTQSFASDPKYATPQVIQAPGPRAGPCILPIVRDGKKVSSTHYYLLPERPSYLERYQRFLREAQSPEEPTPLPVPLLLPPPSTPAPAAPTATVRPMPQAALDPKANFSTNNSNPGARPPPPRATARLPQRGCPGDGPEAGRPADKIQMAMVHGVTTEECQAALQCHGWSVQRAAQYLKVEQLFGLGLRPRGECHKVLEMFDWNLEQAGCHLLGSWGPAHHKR

ULK1 = biological target: T2, ULK1 (Homo sapiens, UniProt O75385)
T2 sequence (O75385 1-1050): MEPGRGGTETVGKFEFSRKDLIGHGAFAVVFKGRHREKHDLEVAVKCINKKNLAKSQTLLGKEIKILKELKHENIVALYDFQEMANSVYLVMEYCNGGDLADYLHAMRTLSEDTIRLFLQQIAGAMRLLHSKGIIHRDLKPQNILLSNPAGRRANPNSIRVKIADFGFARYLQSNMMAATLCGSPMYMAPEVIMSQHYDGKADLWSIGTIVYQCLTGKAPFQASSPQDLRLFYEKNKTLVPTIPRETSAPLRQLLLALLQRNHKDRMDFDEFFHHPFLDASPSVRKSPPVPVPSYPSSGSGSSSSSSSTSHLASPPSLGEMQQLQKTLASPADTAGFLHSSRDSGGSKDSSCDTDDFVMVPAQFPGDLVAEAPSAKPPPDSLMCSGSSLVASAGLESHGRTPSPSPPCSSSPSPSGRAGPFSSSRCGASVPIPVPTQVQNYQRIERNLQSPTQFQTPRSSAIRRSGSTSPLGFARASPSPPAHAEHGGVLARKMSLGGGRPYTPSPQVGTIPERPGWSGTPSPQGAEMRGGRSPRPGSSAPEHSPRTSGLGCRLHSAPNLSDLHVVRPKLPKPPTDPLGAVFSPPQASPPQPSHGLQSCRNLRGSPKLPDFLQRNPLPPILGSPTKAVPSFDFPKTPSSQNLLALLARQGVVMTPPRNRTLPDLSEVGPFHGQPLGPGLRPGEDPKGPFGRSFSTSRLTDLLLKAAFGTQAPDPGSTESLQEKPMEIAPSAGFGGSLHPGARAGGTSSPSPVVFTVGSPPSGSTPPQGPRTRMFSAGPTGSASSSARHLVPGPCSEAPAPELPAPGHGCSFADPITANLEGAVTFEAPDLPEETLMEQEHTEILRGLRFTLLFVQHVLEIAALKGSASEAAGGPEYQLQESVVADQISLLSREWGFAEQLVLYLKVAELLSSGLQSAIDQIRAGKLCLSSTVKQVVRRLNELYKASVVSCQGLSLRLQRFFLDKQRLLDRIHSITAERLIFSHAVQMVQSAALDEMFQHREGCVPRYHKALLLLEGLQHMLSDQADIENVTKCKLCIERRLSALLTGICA

MAP2K3 = MAP2K3 (Homo sapiens, UniProt P46734)
MAP2K3, sequence (P46734 whole entry): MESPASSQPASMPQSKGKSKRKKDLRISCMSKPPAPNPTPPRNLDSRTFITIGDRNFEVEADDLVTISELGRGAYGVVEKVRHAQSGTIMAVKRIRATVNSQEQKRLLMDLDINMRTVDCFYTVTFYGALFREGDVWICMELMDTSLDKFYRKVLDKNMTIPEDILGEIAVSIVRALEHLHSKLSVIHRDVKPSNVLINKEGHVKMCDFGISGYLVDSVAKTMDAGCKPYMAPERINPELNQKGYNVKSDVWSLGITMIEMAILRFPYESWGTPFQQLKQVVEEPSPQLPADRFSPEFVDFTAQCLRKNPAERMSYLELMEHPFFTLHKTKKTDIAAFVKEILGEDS

RIOK2 = RIOK2 (Homo sapiens, UniProt Q9BVS4)
RIOK2, sequence (Q9BVS4 whole entry): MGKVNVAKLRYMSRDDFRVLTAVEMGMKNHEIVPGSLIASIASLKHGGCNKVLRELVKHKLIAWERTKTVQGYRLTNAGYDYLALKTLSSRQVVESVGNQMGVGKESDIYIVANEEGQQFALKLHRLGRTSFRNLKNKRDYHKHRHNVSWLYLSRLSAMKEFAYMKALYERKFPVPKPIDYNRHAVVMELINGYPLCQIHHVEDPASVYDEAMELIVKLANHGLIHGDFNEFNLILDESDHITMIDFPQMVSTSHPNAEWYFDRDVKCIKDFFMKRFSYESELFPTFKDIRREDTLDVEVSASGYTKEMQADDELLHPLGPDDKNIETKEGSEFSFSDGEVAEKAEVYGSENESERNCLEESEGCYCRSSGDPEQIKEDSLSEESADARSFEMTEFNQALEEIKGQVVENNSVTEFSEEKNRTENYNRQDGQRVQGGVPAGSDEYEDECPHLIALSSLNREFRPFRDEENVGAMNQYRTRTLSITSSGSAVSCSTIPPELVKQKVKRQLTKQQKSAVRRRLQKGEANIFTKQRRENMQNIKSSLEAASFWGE

STK17B = STK17B (Homo sapiens, UniProt O94768)
STK17B, sequence (O94768 whole entry): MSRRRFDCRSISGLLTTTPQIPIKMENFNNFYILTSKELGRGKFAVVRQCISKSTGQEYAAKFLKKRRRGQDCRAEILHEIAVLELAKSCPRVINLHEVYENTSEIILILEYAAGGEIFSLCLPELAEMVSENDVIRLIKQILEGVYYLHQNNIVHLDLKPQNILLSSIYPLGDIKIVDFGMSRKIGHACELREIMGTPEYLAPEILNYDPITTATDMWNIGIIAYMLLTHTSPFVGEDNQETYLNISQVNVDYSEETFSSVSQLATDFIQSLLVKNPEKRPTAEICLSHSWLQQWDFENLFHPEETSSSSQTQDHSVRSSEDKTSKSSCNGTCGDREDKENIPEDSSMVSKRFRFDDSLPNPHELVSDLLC

IRAK1, sequence (P51617 whole entry): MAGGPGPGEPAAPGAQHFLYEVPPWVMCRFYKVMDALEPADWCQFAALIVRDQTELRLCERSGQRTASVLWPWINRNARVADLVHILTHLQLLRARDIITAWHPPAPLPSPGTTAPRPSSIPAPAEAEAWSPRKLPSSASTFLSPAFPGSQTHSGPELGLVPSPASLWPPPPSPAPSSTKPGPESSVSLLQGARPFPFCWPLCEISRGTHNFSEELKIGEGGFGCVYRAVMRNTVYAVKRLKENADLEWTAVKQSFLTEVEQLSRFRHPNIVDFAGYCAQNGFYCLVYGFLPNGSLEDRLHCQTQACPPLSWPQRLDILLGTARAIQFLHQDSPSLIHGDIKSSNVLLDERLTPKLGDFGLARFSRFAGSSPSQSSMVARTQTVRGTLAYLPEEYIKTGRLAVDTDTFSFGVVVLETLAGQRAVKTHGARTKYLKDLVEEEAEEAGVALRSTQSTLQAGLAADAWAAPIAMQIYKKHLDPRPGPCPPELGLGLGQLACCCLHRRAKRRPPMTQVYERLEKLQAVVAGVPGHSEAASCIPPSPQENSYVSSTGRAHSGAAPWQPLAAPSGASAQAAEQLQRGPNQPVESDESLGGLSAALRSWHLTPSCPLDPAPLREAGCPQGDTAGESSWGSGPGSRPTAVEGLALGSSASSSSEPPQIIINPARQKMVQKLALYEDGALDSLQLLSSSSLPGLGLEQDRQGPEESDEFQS
ERN1, sequence (O75460 whole entry): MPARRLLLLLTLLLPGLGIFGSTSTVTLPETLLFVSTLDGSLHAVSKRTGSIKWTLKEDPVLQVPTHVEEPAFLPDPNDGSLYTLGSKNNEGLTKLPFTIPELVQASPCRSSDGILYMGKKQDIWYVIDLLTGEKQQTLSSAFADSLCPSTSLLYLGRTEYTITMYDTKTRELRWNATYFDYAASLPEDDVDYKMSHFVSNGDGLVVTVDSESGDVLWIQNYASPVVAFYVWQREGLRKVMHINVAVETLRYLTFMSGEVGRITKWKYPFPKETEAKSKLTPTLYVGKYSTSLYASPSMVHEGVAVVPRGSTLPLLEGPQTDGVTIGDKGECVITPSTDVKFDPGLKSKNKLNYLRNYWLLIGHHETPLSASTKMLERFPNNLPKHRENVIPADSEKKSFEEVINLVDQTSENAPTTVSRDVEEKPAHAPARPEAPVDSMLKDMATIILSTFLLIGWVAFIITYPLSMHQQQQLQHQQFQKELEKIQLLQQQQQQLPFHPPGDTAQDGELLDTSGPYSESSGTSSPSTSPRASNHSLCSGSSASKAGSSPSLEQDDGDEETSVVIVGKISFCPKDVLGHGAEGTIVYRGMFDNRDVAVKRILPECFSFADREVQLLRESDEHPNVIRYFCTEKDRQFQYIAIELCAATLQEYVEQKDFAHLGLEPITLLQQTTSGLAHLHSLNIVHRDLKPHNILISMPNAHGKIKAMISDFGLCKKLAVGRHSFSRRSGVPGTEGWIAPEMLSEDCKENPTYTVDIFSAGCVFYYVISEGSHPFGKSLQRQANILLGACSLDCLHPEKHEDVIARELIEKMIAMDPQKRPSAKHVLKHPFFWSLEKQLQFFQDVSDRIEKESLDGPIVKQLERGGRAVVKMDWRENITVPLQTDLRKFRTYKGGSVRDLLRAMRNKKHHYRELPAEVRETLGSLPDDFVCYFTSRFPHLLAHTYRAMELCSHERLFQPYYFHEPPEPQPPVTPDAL

| Compound | IC50 (ERN1) [nM] | IC50 (IRAK1) | IC50 (MINK1) [nM] | IC50 (NEK6) [nM] | IC50 (PRKAA1) | IC50 (TAOK2) [nM] | IC50 (TNK2) [nM] | IC50 (ULK1) [nM] | IC50 (MAP2K3) [nM] | IC50 (RIOK2) [nM] | IC50 (STK17B) [nM] |
| --- | --- | --- | --- | --- | --- | --- | --- | --- | --- | --- | --- |
| CN1CCN(c2ccc(Nc3ncc(C#N)c(Nc4ccccc4C(N)=O)n3)cc2)CC1.Cl [TCMDC-134116] | 170 | 160 nM and 140 nM | 290 | 260 | 38 nM and 49 nM | 400 | 160 | 160 |  |  |  |
| Cl.NCC1(c2nc(-c3ccc(Cl)c(O)c3)c(-c3ccncc3)[nH]2)CCCCC1 [TCMDC-141154] |  | > 20000 nM | 1400 | > 20000 |  |  | > 20000 | > 20000 | > 20000 | > 20000 | > 20000 |
| CN(C)CC(O)COc1ccc(Nc2ncc([N+](=O)[O-])c(Nc3ccccc3O)n2)cc1.O=C(O)C(F)(F)F (stereo not shown) [TCMDC-141399] | > 20000 |  |  |  | 7100 nM and 7700 nM | > 20000 |  |  | > 20000 | > 20000 | > 20000 |
